# According to paper PMC3606118, “Salvianolic Acid A, a Novel Matrix Metalloproteinase-9 Inhibitor, Prevents Cardiac Remodeling in Spontaneously Hypertensive Rats” (PLoS ONE, 2013):
# Key:
# MMP-9 CD [1] = target: T1, MMP-9 CD (Homo sapiens, UniProt P14780, DEL217-390); assay: Real time binding by surface plasmon resonance (Biacore); settings: for Kd: steady state affinity fit model, immobilized MMP-9 CD, 25°C, read-out: equilibrium dissociation constant (KD); for binding on MMP-9 CD: surface plasmon resonance
# T1 construct: corresponding to residues 107–216 and 391–444; made in house
# T1 sequence (P14780 with tags, fused parts or gaps DEL217-390 limits assumed): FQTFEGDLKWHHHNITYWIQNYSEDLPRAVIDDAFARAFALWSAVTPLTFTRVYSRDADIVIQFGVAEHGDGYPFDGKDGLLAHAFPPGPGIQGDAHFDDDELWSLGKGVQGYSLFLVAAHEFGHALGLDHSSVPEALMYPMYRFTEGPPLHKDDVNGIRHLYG
# Procedure: DNA fragments encoding the catalytic domain of MMP-9 (MMP-9 CD, corresponding to residues 107–216 and 391–444) were constructed and subcloned into a pET-15b vector (Novagen). […]. Surface plasmon resonance analysis was performed using Biacore 3000 (Biacore AB). In brief, MMP-9 CD protein (5.8 µmol/L) in 10 mmol/L sodium acetate buffer (pH 3.73) was covalently immobilized on the hydrophilic carboxymethylated dextran matrix of the CM5 sensor chip (BIAcore AB) using standard primary amine coupling procedure. Phenolic acid at various concentrations in HBS-EP running buffer (10 mmol/L HEPES pH 7.4, 150 mmol/L NaCl, 3.4 mmol/L EDTA and 0.005% surfactant P20) were injected at a constant flow rate of 30 µL/min at 25°C. All data were analyzed by BIAevaluation software and the sensorgrams were processed by automatic correction for nonspecific bulk refractive index effects.
# MMP-9 CD [2] = target: T1, MMP-9 CD; assay: MMP-9 inhibition assay (thiopeptolide, enzyme kinetic analysis); assay type: biochemical; settings: for Ki: spectrophotometric enzyme kinetic assay, thiopeptolide substrate; for inhibition on MMP-9 CD: enzyme kinetic assay
# Procedure: Phenolic acids at the indicated concentrations were incubated with the reaction mixtures contained MMP-9 CD (15 nmol/L) and 5,5′-dithiobis-(2-nitrobenzoic acid) (1 mmol/L) at 4°C for 30 min. The reaction was initiated by the addition of thiopeptolide (Ac-Pro-Leu-Gly-S-Leu-Leu-Gly-OEt). Hydrolysis of thiopeptolide was monitored at 412 nm using Benchmark Plus™ microplate spectrophotometer (Bio-Rad) at room temperature. Kinetic analysis of phenolic acids against MMP-9 CD was calculated using double reciprocal plots of 1/V versus 1/[thiopeptolide]. The slope of every double reciprocal plot is the Km ^app/Vmax of enzyme at different compound concentration. Secondary plot was drawn through Km ^app/Vmax versus compound concentration. Km ^app is apparent value of Km; Ki is inhibition constant; Ki was calculated using the equation Ki = [Km/Vmax][compound]/(Km ^app/Vmax –Km/Vmax).
Kd (MMP-9 CD [1]) [µM],Ki (MMP-9 CD [2]) [µM],binding on MMP-9 CD (MMP-9 CD [1]),inhibition on MMP-9 CD (MMP-9 CD [2]),Compound
–,–,Neither binding nor inhibition was found,Neither binding nor inhibition was found,O=C(O)[C@H](O)Cc1ccc(O)c(O)c1 [danshensu]
66.2,324 ± 132,–,–,O=C(/C=C/c1ccc(O)c2c1[C@H](C(=O)O)[C@@H](c1ccc(O)c(O)c1)O2)O[C@H](Cc1ccc(O)c(O)c1)C(=O)O [lithospermic acid]
–,–,Neither binding nor inhibition was found,Neither binding nor inhibition was found,O=Cc1ccc(O)c(O)c1 [protocatechualdehyde]

# Second part, the molecule before the results:
Compound,Kd (MMP-9 CD [1]) [µM],Ki (MMP-9 CD [2]) [µM],binding on MMP-9 CD (MMP-9 CD [1]),inhibition on MMP-9 CD (MMP-9 CD [2])
"O=C(/C=C/c1ccc(O)c2oc(-c3ccc(O)c(O)c3)cc12)O[C@H](Cc1ccc(O)c(O)c1)C(=O)O [SalC, salvianolic acid C]",1.13,110 ± 33.1,–,–
O=C(/C=C/c1ccc(O)c(O)c1)O[C@H](Cc1ccc(O)c(O)c1)C(=O)O [rosmarinic acid],10.7,126 ± 8.73,–,–
